In patent US8877741B2, “Pyrrolidine derivatives, pharmaceutical compositions and uses thereof” (Boehringer Ingelheim International GmbH, priority 2013, dated 2014):

Target: human ACC2 (Homo sapiens (Human), UniProt O00763)
Experiment: ACC2 assay, spectrophotometric 384 well assay (NADH-linked kinetic method)
Type: biochemical
Conditions: human ACC2 construct lacking the 128 N-terminal amino acids; coupled lactate dehydrogenase/pyruvate kinase reaction, 340 nm, 25° C.
Method: Spectrophotometric 384 Well Assay
Malonyl CoA formation by acetyl CoA carboxylases is stoichometrically linked to the consumption of ATP. ACC2 activity is measured in a NADH-linked kinetic method measuring ADP generated during the ACC reaction using a coupled lactate dehydrogenase/pyruvate kinase reaction.
For biological testing, a human ACC2 construct which lacks the 128 amino acids at the N-terminus for increased solubility (nt 385-6966 in Genbank entry AJ575592) is cloned. The protein is then expressed in insect cells using a baculoviral expression system. Protein purification is performed by anion exchange.
All compounds are dissolved in dimethyl sulfoxide (DMSO) to a concentration of 10 mM.
The enzymatic reaction is then started by addition of a mixture of NADH, acetyl Coenzyme A (both 2000 μM f.c.) and ATP (500 uM f.c.). The decrease of the optical density (slope S) is then determined at 25° C. at a wavelength of 340 nm over 15 minutes in a spectrophotometric reader.
Each assay microtiter plate contains wells with vehicle instead of compound as controls for the non-inhibited enzyme (100% CTL; ‘HIGH’) and wells without acetyl-CoA as controls for non-specific NADH degradation (0% CTL; ‘LOW’).
The slope S is used for calculation of % CTL=(S(compound)−S(‘LOW’))/(S(‘HIGH’)−S(‘LOW’))*100.
For IC50 value determination, the sample slope in the presence of the test compound after subtraction of the low controls (S(compound)−S(‘LOW’)) are used.
An IC50 value is derived from the compound slopes at different dosages after subtraction of the low controls (S(compound)−S(‘LOW’)) by non-linear regression curve fitting (equation y=(A+((B−A)/(1+((C/x)^D))))).

human ACC2, sequence (O00763 129-2458): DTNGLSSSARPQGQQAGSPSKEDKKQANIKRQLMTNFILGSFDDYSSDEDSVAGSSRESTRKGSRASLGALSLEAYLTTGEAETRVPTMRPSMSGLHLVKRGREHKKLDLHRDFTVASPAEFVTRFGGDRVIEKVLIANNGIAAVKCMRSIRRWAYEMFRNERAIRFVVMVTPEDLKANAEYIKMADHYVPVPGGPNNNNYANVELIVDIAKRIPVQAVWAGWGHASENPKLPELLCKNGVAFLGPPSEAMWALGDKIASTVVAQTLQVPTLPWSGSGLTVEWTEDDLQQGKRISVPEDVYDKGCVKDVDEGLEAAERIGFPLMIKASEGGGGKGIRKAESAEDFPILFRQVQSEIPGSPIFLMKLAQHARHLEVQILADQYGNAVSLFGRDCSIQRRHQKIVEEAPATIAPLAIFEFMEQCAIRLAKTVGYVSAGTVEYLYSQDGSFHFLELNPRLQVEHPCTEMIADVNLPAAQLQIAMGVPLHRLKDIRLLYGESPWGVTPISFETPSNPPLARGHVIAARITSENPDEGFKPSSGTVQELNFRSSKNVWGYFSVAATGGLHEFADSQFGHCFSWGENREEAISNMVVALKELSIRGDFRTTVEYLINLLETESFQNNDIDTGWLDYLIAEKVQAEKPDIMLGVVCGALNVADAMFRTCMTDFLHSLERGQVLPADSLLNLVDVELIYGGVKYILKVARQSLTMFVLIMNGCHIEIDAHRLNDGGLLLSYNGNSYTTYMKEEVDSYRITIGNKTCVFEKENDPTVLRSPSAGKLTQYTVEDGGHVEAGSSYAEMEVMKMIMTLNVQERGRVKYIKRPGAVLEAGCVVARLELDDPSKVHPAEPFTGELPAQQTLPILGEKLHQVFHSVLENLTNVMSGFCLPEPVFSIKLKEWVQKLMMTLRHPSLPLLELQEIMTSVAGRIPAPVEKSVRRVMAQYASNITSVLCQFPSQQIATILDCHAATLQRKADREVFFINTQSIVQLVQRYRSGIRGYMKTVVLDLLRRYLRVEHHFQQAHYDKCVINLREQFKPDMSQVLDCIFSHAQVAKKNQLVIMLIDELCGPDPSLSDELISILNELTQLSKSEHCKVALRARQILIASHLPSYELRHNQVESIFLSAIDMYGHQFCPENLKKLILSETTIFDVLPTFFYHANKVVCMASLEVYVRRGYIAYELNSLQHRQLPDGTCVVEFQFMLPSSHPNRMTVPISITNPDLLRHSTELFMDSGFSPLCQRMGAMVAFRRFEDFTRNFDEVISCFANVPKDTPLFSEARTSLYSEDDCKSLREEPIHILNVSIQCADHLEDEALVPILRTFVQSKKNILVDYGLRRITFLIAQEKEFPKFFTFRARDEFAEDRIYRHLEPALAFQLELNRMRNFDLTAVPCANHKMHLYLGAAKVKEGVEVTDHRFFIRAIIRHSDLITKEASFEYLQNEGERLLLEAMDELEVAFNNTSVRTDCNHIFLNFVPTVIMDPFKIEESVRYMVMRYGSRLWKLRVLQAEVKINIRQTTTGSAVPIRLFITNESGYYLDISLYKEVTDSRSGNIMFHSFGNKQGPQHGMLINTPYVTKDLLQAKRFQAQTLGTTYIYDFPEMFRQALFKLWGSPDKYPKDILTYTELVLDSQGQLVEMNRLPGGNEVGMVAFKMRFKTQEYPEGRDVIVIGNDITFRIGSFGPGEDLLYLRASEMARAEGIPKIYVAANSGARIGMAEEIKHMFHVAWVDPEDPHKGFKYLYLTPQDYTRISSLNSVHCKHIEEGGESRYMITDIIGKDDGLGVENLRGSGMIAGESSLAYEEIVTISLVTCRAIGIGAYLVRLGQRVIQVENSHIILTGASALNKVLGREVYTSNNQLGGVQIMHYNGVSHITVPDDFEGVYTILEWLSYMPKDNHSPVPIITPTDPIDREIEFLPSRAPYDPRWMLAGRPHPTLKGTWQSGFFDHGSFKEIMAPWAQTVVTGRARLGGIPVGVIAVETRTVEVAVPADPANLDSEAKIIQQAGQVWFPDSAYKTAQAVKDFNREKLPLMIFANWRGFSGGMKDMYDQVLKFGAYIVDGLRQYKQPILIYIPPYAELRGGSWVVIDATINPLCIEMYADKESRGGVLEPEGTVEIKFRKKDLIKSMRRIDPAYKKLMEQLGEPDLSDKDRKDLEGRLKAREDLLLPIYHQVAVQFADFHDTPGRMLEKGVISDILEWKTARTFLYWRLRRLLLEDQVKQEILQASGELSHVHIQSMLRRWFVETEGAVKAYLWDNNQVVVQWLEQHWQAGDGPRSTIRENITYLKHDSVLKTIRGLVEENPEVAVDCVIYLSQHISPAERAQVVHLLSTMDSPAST

IC50 [µM]	Structure (SMILES)
0.633	COc1c(N2CC[C@@H](Oc3ccc([C@H](C)NC(C)=O)cc3)C2)ccnc1N(C)C [Example 1.137]
0.026	CC(=O)N[C@@H](C)c1ccc(O[C@@H]2CCN(c3ccnc(NCC4CC4)c3Cl)C2)cc1 [Example 1.138]
0.037	COc1c(N2CC[C@@H](Oc3ccc([C@H](C)NC(C)=O)cc3)C2)ccnc1OCCC1CC1 [Example 1.139]
0.065	CCC(=O)Nc1nc(C)c(C(=O)N[C@@H](C)c2ccc(O[C@@H]3CCN(c4ccnc(NCC5CC5)c4Cl)C3)cc2)s1 [Example 1.140]
0.421	CCC(=O)Nc1nc(C)c(C(=O)N[C@@H](C)c2ccc(O[C@@H]3CCN(c4ccnc(NCC(F)F)c4F)C3)cc2)s1 [Example 1.141]
0.067	CCC(=O)Nc1nc(C)c(C(=O)N[C@@H](C)c2ccc(O[C@@H]3CCN(c4ccnc(NCC5CC5)c4F)C3)cc2)s1 [Example 1.142]
0.116	CCC(=O)Nc1nc(C)c(C(=O)N[C@@H](C)c2ccc(O[C@@H]3CCN(c4ccnc(NCC(F)F)c4Cl)C3)cc2)s1 [Example 1.143]
0.093	CCC(=O)Nc1nc(C)c(C(=O)N[C@@H](C)c2ccc(O[C@@H]3CCN(c4ccc(OC[C@H]5CC5(F)F)cn4)C3)cc2)s1 [Example 1.144]
0.995	CCC(=O)Nc1nc(C)c(C(=O)N[C@@H](C)c2ccc(O[C@@H]3CCN(c4ccc(OC[C@@H]5CC5(F)F)cn4)C3)cc2)s1 [Example 1.145]
0.109	COc1c(N2CC[C@@H](Oc3ccc([C@H](C)NC(C)=O)cc3)C2)ccnc1N1CCC(F)(F)C1 [Example 1.146]
0.047	CC(=O)N[C@@H](C)c1ccc(O[C@@H]2CCN(c3ccnc(N4CCCC4)c3Cl)C2)cc1 [Example 1.148]
0.156	COc1c(N2CC[C@@H](Oc3ccc([C@H](C)NC(C)=O)cc3)C2)ccnc1OCC(C)(C)OC [Example 1.149]
0.069	COc1c(N2CC[C@@H](Oc3ccc([C@H](C)NC(C)=O)cc3)C2)ccnc1OC(C)C [Example 1.150]
0.504	COc1c(N2CC[C@@H](Oc3ccc([C@H](C)NC(C)=O)cc3)C2)ccnc1OCC(C)(C)O [Example 1.151]
0.025	CC(=O)Nc1nc(C)c(C(=O)N[C@@H](C)c2ccc(O[C@@H]3CCN(c4ccc(OCC5CC5(F)F)cn4)C3)cc2)s1 (stereo partly drawn) [Example 2.1, 2-Acetamido-N—((1S)-1-(4-((3R)-1-(5-((2,2-difluorocyclopropyl)methoxy)pyridin-2-yl)pyrrolidin-3-yloxy)phenyl)ethyl)-4-methylthiazole-5-carboxamide]
0.705	CNC(=O)c1cccc(C(=O)N[C@@H](C)c2ccc(OC3CCN(c4ccc(OCC5CC5)cc4)C3)cc2)n1 (stereo partly drawn) [Example 2.2]
0.149	CC(C)Oc1cc(N2CCC(Oc3ccc([C@H](C)NC(=O)C4CC4)cc3)C2)ccn1 (stereo partly drawn) [Example 2.3]
0.145	CC(C)Oc1cc(N2CCC(Oc3ccc([C@H](C)NC(=O)c4cnn(C)c4)cc3)C2)ccn1 (stereo partly drawn) [Example 2.4]
0.07	Cc1nocc1C(=O)N[C@@H](C)c1ccc(OC2CCN(c3ccnc(OC(C)C)c3)C2)cc1 (stereo partly drawn) [Example 2.5]
0.145	CC(C)Oc1cc(N2CCC(Oc3ccc([C@H](C)NC(=O)c4ccns4)cc3)C2)ccn1 (stereo partly drawn) [Example 2.6]
0.389	CC(C)Oc1cc(N2CCC(Oc3ccc([C@H](C)NC(=O)CC#N)cc3)C2)ccn1 (stereo partly drawn) [Example 2.7]

IC50 [µM]	Structure (SMILES)
0.065	CC(C)Oc1cc(N2CCC(Oc3ccc([C@H](C)NC(=O)c4cn[nH]c4)cc3)C2)ccn1 (stereo partly drawn) [Example 2.8]
0.873	CC(C)Oc1cc(N2CCC(Oc3ccc([C@H](C)NC(=O)c4ccncc4)cc3)C2)ccn1 (stereo partly drawn) [Example 2.9]
0.67	CC(C)Oc1cc(N2CCC(Oc3ccc([C@H](C)NC(=O)c4ccno4)cc3)C2)ccn1 (stereo partly drawn) [Example 2.10]
1	CC(C)Oc1cc(N2CCC(Oc3ccc([C@H](C)NC(=O)CC(F)(F)F)cc3)C2)ccn1 (stereo partly drawn) [Example 2.11]
0.921	Cc1occc1C(=O)N[C@@H](C)c1ccc(OC2CCN(c3ccnc(OC(C)C)c3)C2)cc1 (stereo partly drawn) [Example 2.12]
0.798	CC(C)Oc1cc(N2CCC(Oc3ccc([C@H](C)NC(=O)C(C)F)cc3)C2)ccn1 (stereo partly drawn) [Example 2.13]
0.769	CC(C)Oc1cc(N2CCC(Oc3ccc([C@H](C)NC(=O)C4CCOC4)cc3)C2)ccn1 (stereo partly drawn) [Example 2.15]
0.607	CC(C)Oc1cc(N2CCC(Oc3ccc([C@H](C)NC(=O)C4(C(F)(F)F)CC4)cc3)C2)ccn1 (stereo partly drawn) [Example 2.17]
0.862	CC(C)Oc1cc(N2CCC(Oc3ccc([C@H](C)NC(=O)c4ccco4)cc3)C2)ccn1 (stereo partly drawn) [Example 2.18]
0.25	CC(C)Oc1cc(N2CCC(Oc3ccc([C@H](C)NC(=O)C(F)F)cc3)C2)ccn1 (stereo partly drawn) [Example 2.19]
0.11	CC(C)Oc1cc(N2CCC(Oc3ccc([C@H](C)NC(=O)c4ccoc4)cc3)C2)ccn1 (stereo partly drawn) [Example 2.20]
0.389	CC(C)Oc1cc(N2CCC(Oc3ccc([C@H](C)NC(=O)C4(C)CC4)cc3)C2)ccn1 (stereo partly drawn) [Example 2.21]
0.998	CC(=O)Nc1cncc(C(=O)N[C@@H](C)c2ccc(OC3CCN(c4ccnc(OC(C)C)c4)C3)cc2)c1 (stereo partly drawn) [Example 2.22]
0.97	CC(C)Oc1cc(N2CCC(Oc3ccc([C@H](C)NC(=O)C(C)C#N)cc3)C2)ccn1 (stereo partly drawn) [Example 2.23]
0.199	CC(C)Oc1cc(N2CCC(Oc3ccc([C@H](C)NC(=O)c4cncs4)cc3)C2)ccn1 (stereo partly drawn) [Example 2.24]
0.564	CC(C)Oc1cc(N2CCC(Oc3ccc([C@H](C)NC(=O)C4CCC4)cc3)C2)ccn1 (stereo partly drawn) [Example 2.25]
0.466	CC(=O)Nc1cc(C(=O)N[C@@H](C)c2ccc(OC3CCN(c4ccnc(OC(C)C)c4)C3)cc2)ccn1 (stereo partly drawn) [Example 2.26]
0.571	CC(C)Oc1cc(N2CCC(Oc3ccc([C@H](C)NC(=O)C4(C#N)CC4)cc3)C2)ccn1 (stereo partly drawn) [Example 2.27]
0.512	CC(C)Oc1cc(N2CCC(Oc3ccc([C@H](C)NC(=O)c4ccon4)cc3)C2)ccn1 (stereo partly drawn) [Example 2.28]
0.267	CC(C)Oc1cc(N2CCC(Oc3ccc([C@H](C)NC(=O)C(C)(F)F)cc3)C2)ccn1 (stereo partly drawn) [Example 2.29]
0.455	CCC(=O)N[C@@H](C)c1ccc(OC2CCN(c3ccnc(OC(C)C)c3)C2)cc1 (stereo partly drawn) [Example 2.30]

IC50 [µM]	Structure (SMILES)
0.964	Cc1cc(CC(=O)N[C@@H](C)c2ccc(OC3CCN(c4ccnc(OC(C)C)c4)C3)cc2)on1 (stereo partly drawn) [Example 2.31]
0.12	C[C@H](NC(=O)C(F)F)c1ccc(OC2CCN(c3cccc(C(F)(F)F)n3)C2)cc1 (stereo partly drawn) [Example 2.32]
0.055	CCC(=O)N[C@@H](C)c1ccc(OC2CCN(c3ccc(OCC4CC4(F)F)cn3)C2)cc1 (stereo partly drawn) [Example 2.33]
0.069	C[C@H](NC(=O)c1cn[nH]c1)c1ccc(OC2CCN(c3ccc(OCC4CC4(F)F)cn3)C2)cc1 (stereo partly drawn) [Example 2.34]
0.276	C[C@H](NC(=O)C(C)(F)F)c1ccc(OC2CCN(c3ccc(OCC4CC4(F)F)cn3)C2)cc1 (stereo partly drawn) [Example 2.35]
0.13	C[C@H](NC(=O)c1cnn(C)c1)c1ccc(OC2CCN(c3cccc(C(F)(F)F)n3)C2)cc1 (stereo partly drawn) [Example 2.36]
0.247	C[C@H](NC(=O)C1(C(F)(F)F)CC1)c1ccc(OC2CCN(c3cccc(C(F)(F)F)n3)C2)cc1 (stereo partly drawn) [Example 2.37]
0.869	CC(C)C(=O)N[C@@H](C)c1ccc(OC2CCN(c3cccc(C(F)(F)F)n3)C2)cc1 (stereo partly drawn) [Example 2.38]
0.61	Cc1ncoc1C(=O)N[C@@H](C)c1ccc(OC2CCN(c3cccc(C(F)(F)F)n3)C2)cc1 (stereo partly drawn) [Example 2.39]
0.139	C[C@H](NC(=O)C1(C)CC1)c1ccc(OC2CCN(c3cccc(C(F)(F)F)n3)C2)cc1 (stereo partly drawn) [Example 2.40]
0.315	CCC(=O)N[C@@H](C)c1ccc(OC2CCN(c3cccc(C(F)(F)F)n3)C2)cc1 (stereo partly drawn) [Example 2.41]
0.675	C[C@H](NC(=O)CCC#N)c1ccc(OC2CCN(c3cccc(C(F)(F)F)n3)C2)cc1 (stereo partly drawn) [Example 2.42]
0.057	Cc1nocc1C(=O)N[C@@H](C)c1ccc(OC2CCN(c3cccc(C(F)(F)F)n3)C2)cc1 (stereo partly drawn) [Example 2.43]
0.991	C[C@H](NC(=O)c1ccnc(F)c1)c1ccc(OC2CCN(c3cccc(C(F)(F)F)n3)C2)cc1 (stereo partly drawn) [Example 2.44]
0.1	C[C@H](NC(=O)c1cnsc1)c1ccc(OC2CCN(c3cccc(C(F)(F)F)n3)C2)cc1 (stereo partly drawn) [Example 2.45]
0.06	C[C@H](NC(=O)c1cncs1)c1ccc(OC2CCN(c3cccc(C(F)(F)F)n3)C2)cc1 (stereo partly drawn) [Example 2.46]
0.891	C[C@H](NC(=O)C1CCC1)c1ccc(OC2CCN(c3cccc(C(F)(F)F)n3)C2)cc1 (stereo partly drawn) [Example 2.48]
0.56	C[C@H](NC(=O)C1CC1)c1ccc(OC2CCN(c3cccc(C(F)(F)F)n3)C2)cc1 (stereo partly drawn) [Example 2.49]
0.895	Cc1cncc(C(=O)N[C@@H](C)c2ccc(OC3CCN(c4cccc(C(F)(F)F)n4)C3)cc2)c1 (stereo partly drawn) [Example 2.50]
0.128	C[C@H](NC(=O)c1ccon1)c1ccc(OC2CCN(c3cccc(C(F)(F)F)n3)C2)cc1 (stereo partly drawn) [Example 2.51]
0.275	C[C@H](NC(=O)c1ccno1)c1ccc(OC2CCN(c3cccc(C(F)(F)F)n3)C2)cc1 (stereo partly drawn) [Example 2.52]
